In brackets after ≈: the same amount, converted by molar mass. Where two headings read alike, the source gives them in different places. Where a SMILES comes first, the peptide text is derived from it. Bridges are numbered along the chain shown (N, C = ends). Where no end group is shown, it is not given here. Bounds are passed on as bounds.

For one assay, the system named is S. pneumoniae ATCC6305. Put plainly: MIC assays under standard conditions. The class given is cell-based, Streptococcus pneumoniae. The settings on record: Supplementary Table 1, cation-adjusted MHB + 5% lysed horse blood, 5% CO2, 20–24 h. The procedure:
(§1) Plectasin and analogues were serially diluted in cation-adjusted Mueller–Hinton broth (MHB) in round-bottom polypropylene 96-well plates (50 µl per well). Selected bacterial strains were grown from glycerol stocks on blood agar plates. Individual colonies were inoculated in TSB and incubated at 37 °C while shaking until OD600 reached 0.5. Bacterial suspensions were then diluted 100 times in cation-adjusted MHB and distributed (50 μl per well) over the microplate containing the diluted plectasin solutions. Plates were covered by a gas-permeable adhesive membrane and incubated at 37 °C while shaking. MICs were determined by visual inspection after 16–20 h (Staphylococcus) or 20–24 h (Streptococcus). For Streptococcus strains, the broth was additionally supplemented with 5% lysed horse blood, and the microplates were incubated under 5% CO2 atmosphere. In the assays, we used the following strains: S. simulans, S. pneumoniae serotype 8, S. pneumoniae ATCC6305 and Streptococcus pyogenes M3.

In the next assay the test system is S. simulans 22. Put plainly: MIC assays under standard conditions. The format is cell-based, Staphylococcus simulans. Particulars: for Minimum inhibitory concentration, S. simulans / MIC: cation-adjusted MHB, 37 °C; for MIC: Staphylococcus simulans, 22. The method, then:
as §1

Consider `CSCC[C@@H]1NC(=O)[C@H](CC(=O)O)NC(=O)[C@H](CC(=O)O)NC(=O)[C@H](CCC(=O)O)NC(=O)[C@H](CC(=O)O)NC(=O)[C@H](Cc2c[nH]c3ccccc23)NC(=O)[C@@H]2CCCN2C(=O)CNC(=O)[C@H](CC(N)=O)NC(=O)[C@@H](NC(=O)CNC(=O)[C@H](Cc2ccccc2)NC(=O)CN)CSSC[C@@H]2NC(=O)[C@H](Cc3ccc(O)cc3)NC(=O)CNC(=O)CNC(=O)[C@H](CCCCN)NC(=O)[C@H](Cc3ccc(O)cc3)NC(=O)CNC(=O)[C@H](CCCCN)NC(=O)[C@H](CCCCN)NC(=O)[C@H](CO)NC(=O)[C@H](CCCCN)NC(=O)[C@@H]3CSSC[C@@H](C(=O)N[C@@H](Cc4ccc(O)cc4)C(=O)O)NC(=O)[C@H](CCCCN)NC(=O)[C@H](CSSC[C@H](NC(=O)[C@H](CCC(N)=O)NC1=O)C(=O)N[C@@H](Cc1c[nH]cn1)C(=O)N[C@@H](CC(N)=O)C(=O)N[C@@H](Cc1c[nH]cn1)C(=O)N3)NC(=O)[C@H](C(C)C)NC(=O)[C@H](Cc1ccccc1)NC(=O)CNC(=O)CNC(=O)[C@H](CCCCN)NC(=O)[C@H](C)NC2=O` [I22K] (H-GFGCNGPWDEDDMQCHNHCKSKKGYKGGYCAKGGFVCKCY-OH; disulfide 4-30, 15-37, 19-39 (inferred); N-terminus and C-terminus assumed), for which the “Minimum inhibitory concentration, S. pneumoniae ATCC6305” value in the assay with S. pneumoniae ATCC6305 is more than 50 µg/mL. The “Minimum inhibitory concentration, S. simulans” value with S. simulans 22 (Supplementary Table 1, 16–20 h) was more than 50 µg/mL.
Take `CC[C@H](C)[C@@H]1NC(=O)[C@H](CO)NC(=O)[C@H](CCCCN)NC(=O)[C@@H]2CSSC[C@@H](C(=O)N[C@@H](Cc3ccc(O)cc3)C(=O)O)NC(=O)[C@H](CCCCN)NC(=O)[C@@H]3CSSC[C@H](NC(=O)[C@H](CCC(N)=O)NC(=O)[C@H](CCSC)NC(=O)[C@H](CC(=O)O)NC(=O)[C@H](CC(=O)O)NC(=O)[C@H](CCC(=O)O)NC(=O)[C@H](CC(=O)O)NC(=O)[C@H](Cc4c[nH]c5ccccc45)NC(=O)[C@@H]4CCCN4C(=O)CNC(=O)[C@H](CC(N)=O)NC(=O)[C@@H](NC(=O)CNC(=O)[C@H](Cc4ccccc4)NC(=O)CN)CSSC[C@H](NC(=O)[C@H](Cc4ccc(O)cc4)NC(=O)CNC(=O)CNC(=O)[C@H](C)NC(=O)[C@H](Cc4ccc(O)cc4)NC(=O)CNC(=O)[C@H](CCCCN)NC1=O)C(=O)N[C@@H](C)C(=O)N[C@@H](CCCCN)C(=O)NCC(=O)NCC(=O)N[C@@H](Cc1ccccc1)C(=O)N[C@@H](C(C)C)C(=O)N3)C(=O)N[C@@H](Cc1c[nH]cn1)C(=O)N[C@@H](CC(N)=O)C(=O)N[C@@H](Cc1c[nH]cn1)C(=O)N2` [K26A] (H-GFGCNGPWDEDDMQCHNHCKSIKGYAGGYCAKGGFVCKCY-OH; disulfide 4-30, 15-37, 19-39 (inferred); N-terminus and C-terminus assumed): the “Minimum inhibitory concentration, S. pneumoniae ATCC6305” value in the assay on S. pneumoniae ATCC6305 is 3,13 μg/mL. In addition, in the assay with S. simulans 22 (Supplementary Table 1, 16–20 h), the “Minimum inhibitory concentration, S. simulans” value is 3,13 μg/mL. Moreover, the “reduction in activity vs plectasin” value with S. simulans 22 (from MIC of Table 1) was “fivefold to tenfold”.
For the molecule `CC[C@H](C)[C@@H]1NC(=O)[C@H](CO)NC(=O)[C@H](CCCCN)NC(=O)[C@@H]2CSSC[C@@H](C(=O)N[C@@H](Cc3ccc(O)cc3)C(=O)O)NC(=O)[C@H](CCCCN)NC(=O)[C@@H]3CSSC[C@H](NC(=O)[C@H](CCC(N)=O)NC(=O)[C@H](CCSC)NC(=O)[C@H](CC(=O)O)NC(=O)[C@H](CC(=O)O)NC(=O)[C@H](CCC(=O)O)NC(=O)[C@H](CC(=O)O)NC(=O)[C@H](Cc4c[nH]c5ccccc45)NC(=O)[C@@H]4CCCN4C(=O)CNC(=O)[C@H](CC(N)=O)NC(=O)[C@@H](NC(=O)CNC(=O)[C@H](Cc4ccccc4)NC(=O)CN)CSSC[C@H](NC(=O)[C@H](Cc4ccc(O)cc4)NC(=O)CNC(=O)CNC(=O)[C@H](CCCNC(=N)N)NC(=O)[C@H](Cc4ccc(O)cc4)NC(=O)CNC(=O)[C@H](CCCCN)NC1=O)C(=O)N[C@@H](C)C(=O)N[C@@H](CCCCN)C(=O)NCC(=O)NCC(=O)N[C@@H](Cc1ccccc1)C(=O)N[C@@H](C(C)C)C(=O)N3)C(=O)N[C@@H](Cc1c[nH]cn1)C(=O)N[C@@H](CC(N)=O)C(=O)N[C@@H](Cc1c[nH]cn1)C(=O)N2` [K26R] (H-GFGCNGPWDEDDMQCHNHCKSIKGYRGGYCAKGGFVCKCY-OH; disulfide 4-30, 15-37, 19-39 (inferred); N-terminus and C-terminus assumed), in the assay with S. pneumoniae ATCC6305, the “Minimum inhibitory concentration, S. pneumoniae ATCC6305” value is 1,56 μg/mL. The “Minimum inhibitory concentration, S. simulans” value in the assay on S. simulans 22 (Supplementary Table 1, 16–20 h) was not above 0.78 µg/mL.
With `CN[C@H](CC(C)C)C(=O)N[C@H]1C(=O)N[C@@H](CC(N)=O)C(=O)N[C@H]2C(=O)N[C@H]3C(=O)N[C@H](C(=O)N[C@H](C(=O)O)c4cc(O)cc(O)c4-c4cc3ccc4O)[C@H](O)c3ccc(c(Cl)c3)Oc3cc2cc(c3O[C@@H]2O[C@H](CO)[C@@H](O)[C@H](O)[C@H]2O[C@H]2C[C@](C)(N)[C@H](O)[C@H](C)O2)Oc2ccc(cc2Cl)[C@H]1O` [Vancomycin, reference compound], the MIC with S. pneumoniae ATCC6305 (Streptococcus pneumoniae, ATCC6305, read-out: Minimum inhibitory concentration, S. pneumoniae ATCC6305) was less than 0.78 µg/mL; in the assay with S. simulans 22 (Supplementary Table 1, 16–20 h, read-out: Minimum inhibitory concentration, S. simulans), 0.78 µg/mL (≈ 0.538 µM); in the assay on S. simulans 22 (standard conditions, visual inspection after 16–20 h, read-out: MIC) it was 0.78 µg/mL (≈ 0.538 µM).
As to `CC[C@H](C)[C@@H]1NC(=O)[C@H](CO)NC(=O)[C@H](CCCCN)NC(=O)[C@@H]2CSSC[C@@H](C(=O)N[C@@H](Cc3ccc(O)cc3)C(=O)O)NC(=O)[C@H](CCCCN)NC(=O)[C@@H]3CSSC[C@H](NC(=O)[C@H](CCC(N)=O)NC(=O)[C@H](CCSC)NC(=O)[C@H](CC(=O)O)NC(=O)[C@H](CC(=O)O)NC(=O)[C@H](CCC(=O)O)NC(=O)[C@H](CC(=O)O)NC(=O)[C@H](Cc4c[nH]c5ccccc45)NC(=O)[C@@H]4CCCN4C(=O)CNC(=O)[C@H](CC(N)=O)NC(=O)[C@@H](NC(=O)CNC(=O)[C@H](Cc4ccccc4)NC(=O)CN)CSSC[C@H](NC(=O)[C@H](Cc4ccc(O)cc4)NC(=O)CNC(=O)CNC(=O)[C@H](CCCCN)NC(=O)[C@H](Cc4ccccc4)NC(=O)CNC(=O)[C@H](CCCCN)NC1=O)C(=O)N[C@@H](C)C(=O)N[C@@H](CCCCN)C(=O)NCC(=O)NCC(=O)N[C@@H](Cc1ccccc1)C(=O)N[C@@H](C(C)C)C(=O)N3)C(=O)N[C@@H](Cc1c[nH]cn1)C(=O)N[C@@H](CC(N)=O)C(=O)N[C@@H](Cc1c[nH]cn1)C(=O)N2` [Y25F] (H-GFGCNGPWDEDDMQCHNHCKSIKGFKGGYCAKGGFVCKCY-OH; disulfide 4-30, 15-37, 19-39 (inferred); N-terminus and C-terminus assumed), in the assay with S. pneumoniae ATCC6305, the “Minimum inhibitory concentration, S. pneumoniae ATCC6305” value is given as 3,125 μg/mL. The “Minimum inhibitory concentration, S. simulans” value in the assay with S. simulans 22 (Supplementary Table 1, 16–20 h) is 1,56 μg/mL.
Turning to `CC[C@H](C)[C@@H]1NC(=O)[C@H](CO)NC(=O)[C@H](CCCCN)NC(=O)[C@@H]2CSSC[C@@H](C(=O)N[C@@H](Cc3ccc(O)cc3)C(=O)O)NC(=O)[C@H](CCCCN)NC(=O)[C@@H]3CSSC[C@H](NC(=O)[C@H](CCC(N)=O)NC(=O)[C@H](CCSC)NC(=O)[C@H](CC(=O)O)NC(=O)[C@H](CC(=O)O)NC(=O)[C@H](CCC(=O)O)NC(=O)[C@H](CC(=O)O)NC(=O)[C@H](Cc4c[nH]c5ccccc45)NC(=O)[C@@H]4CCCN4C(=O)CNC(=O)[C@H](CC(N)=O)NC(=O)[C@@H](NC(=O)CNC(=O)[C@H](Cc4ccccc4)NC(=O)CN)CSSC[C@H](NC(=O)[C@H](Cc4ccc(O)cc4)NC(=O)CNC(=O)CNC(=O)[C@H](CCCCN)NC(=O)[C@H](CC(C)C)NC(=O)CNC(=O)[C@H](CCCCN)NC1=O)C(=O)N[C@@H](C)C(=O)N[C@@H](CCCCN)C(=O)NCC(=O)NCC(=O)N[C@@H](Cc1ccccc1)C(=O)N[C@@H](C(C)C)C(=O)N3)C(=O)N[C@@H](Cc1c[nH]cn1)C(=O)N[C@@H](CC(N)=O)C(=O)N[C@@H](Cc1c[nH]cn1)C(=O)N2` [Y25L] (H-GFGCNGPWDEDDMQCHNHCKSIKGLKGGYCAKGGFVCKCY-OH; disulfide 4-30, 15-37, 19-39 (inferred); N-terminus and C-terminus assumed), in the assay on S. simulans 22 (Supplementary Table 1, 16–20 h), the “Minimum inhibitory concentration, S. simulans” value is 3,13 μg/mL.
With `CC[C@H](C)[C@@H]1NC(=O)[C@H](CO)NC(=O)[C@H](CCCCN)NC(=O)[C@@H]2CSSC[C@@H](C(=O)N[C@@H](Cc3ccc(O)cc3)C(=O)O)NC(=O)[C@H](CCCCN)NC(=O)[C@@H]3CSSC[C@H](NC(=O)[C@H](CCC(N)=O)NC(=O)[C@H](CCSC)NC(=O)[C@H](CC(=O)O)NC(=O)[C@H](CC(=O)O)NC(=O)[C@H](CCC(=O)O)NC(=O)[C@H](CC(=O)O)NC(=O)[C@H](Cc4c[nH]c5ccccc45)NC(=O)[C@@H]4CCCN4C(=O)CNC(=O)[C@H](CC(N)=O)NC(=O)[C@@H](NC(=O)CNC(=O)[C@H](Cc4ccccc4)NC(=O)CN)CSSC[C@H](NC(=O)[C@H](Cc4ccc(O)cc4)NC(=O)CNC(=O)CNC(=O)[C@H](CCCCN)NC(=O)[C@H](C(C)C)NC(=O)CNC(=O)[C@H](CCCCN)NC1=O)C(=O)N[C@@H](C)C(=O)N[C@@H](CCCCN)C(=O)NCC(=O)NCC(=O)N[C@@H](Cc1ccccc1)C(=O)N[C@@H](C(C)C)C(=O)N3)C(=O)N[C@@H](Cc1c[nH]cn1)C(=O)N[C@@H](CC(N)=O)C(=O)N[C@@H](Cc1c[nH]cn1)C(=O)N2` [Y25V] (H-GFGCNGPWDEDDMQCHNHCKSIKGVKGGYCAKGGFVCKCY-OH; disulfide 4-30, 15-37, 19-39 (inferred); N-terminus and C-terminus assumed), the “Minimum inhibitory concentration, S. simulans” value in the assay with S. simulans 22 (Supplementary Table 1, 16–20 h) is given as 6,25 μg/mL.
As for “nisin (ITSISLCTPGCKTGALMGCNMKTATCHCSIHVSK; not fully specified (some residues, bridges); also: lantibiotic nisin-A (thioether rings, dehydro residues) not placed; UniProt P13068 24-57, looked up) [reference compound]”, the “MIC towards S. simulans as quoted in Extended Data Fig. 8” value with S. simulans 22 (legend of the permeabilization assays) is 0.075 µM.
